# According to US20230092872A1, “Method for promoting wound healing” (Phagelux Canada Inc., priority 2021, published 2023):
# Test: Toxicological evaluation of leachable chemicals of BACTELIDE (margin of safety)
# Settings: worst-case exposure: daily exposure, 100% bioavailability; leachables from BACTELIDE spray
# Description: ISO 10993-18:2020 and ISO/TS 21726:2019 leachable studies were performed for BACTELIDE. Solutions of BACTELIDE were collected for analysis via the spraying. The extracts were analyzed by gas chromatography-mass spectrometry (GC-MS) for volatile to semi-volatile compounds, by liquid chromatography-mass spectrometry (LC-MS) for semi-volatile to nonvolatile compounds, and by inductively coupled plasma mass spectrometry (ICP-MS) for elemental (metal and other) components. After analysis, results were reported based on the evaluation criteria listed in the results section below. […] 2-(N,N-Diethylamino)ethyldecyl maleate (CAS #184874-09-7) was the most abundant. Regarding LC-MS results, thirty-nine reportable compounds were identified in the test article extracts in positive ion mode. Glycerol dipentadecanoate (CAS #121957-69-5) was the most abundant. Thirty-six reportable compounds were identified in the test article extracts in negative ion mode. 3-[4-[[4-(2-Oxiranylmethoxy)phenyl]methyl]phenoxy]-1,2-propanediol didodecanoate (CAS #not given) was the most abundant. […]
# The MOS values for all chemicals (or groups of similar chemicals) and elements identified across the analytical methods ranged from 3 to 1340000. A few chemicals had calculated “near-1” (i.e. ≥1 but <10) MOS values. […] Their margins of safety were calculated using the ICH M7 less than 1 year TTC of 0.33. […]
compound,measurement,value
"OCC(O)COc1ccc(Cc2ccc(OCC3CO3)cc2)cc1 (stereo not shown) [3-[4-[[4-(2-Oxiranylmethoxy)phenyl]methyl]phenoxy]-1,2-propanediols]",MOS value (margin of safety),3
